Source: PubChem BioAssay (NCI)
Values joined by “and” are separate entries in the source; they are usually repeats but may differ in a detail not shown here. Identical values can stand only once.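 Growth conditions: 96-well plates. Treatment: test compound, 48 hours, 5 concentrations. Analysis: linear interpolation between bracketing concentrations; unreached endpoints set to highest concentration. At the GI50, growth is halved. At the TGI there is no net growth.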

How the values were obtained:
Test in all cases: NCI tumour cell line growth inhibition, 48 h
ACHN renal = system: ACHN renal
HT29 colon = system: HT29 colon
KM12 colon = system: KM12 colon
MOLT-4 leukemia = system: MOLT-4 leukemia
PC-3 prostate = system: PC-3 prostate
SF-268 CNS = system: SF-268 CNS
SK-MEL-2 melanoma = system: SK-MEL-2 melanoma
SNB-19 CNS = system: SNB-19 CNS
OVCAR-3 ovarian = system: OVCAR-3 ovarian
SR leukemia = system: SR leukemia

Nc1ncnc2c1ncn2C1OC(CO)C(O)C1O (stereo not drawn)
GI50 (ACHN renal): 30.4 µM
TGI (ACHN renal): > 100 µM and 96.8 µM
TGI (HT29 colon): > 450 µM
TGI (KM12 colon): > 450 µM
GI50 (MOLT-4 leukemia): > 100 µM and 201 µM
TGI (MOLT-4 leukemia): > 450 µM
GI50 (PC-3 prostate): 1.44 µM
TGI (PC-3 prostate): > 100 µM and 12.8 µM
GI50 (SF-268 CNS): 38.7 µM
TGI (SF-268 CNS): > 450 µM
TGI (SK-MEL-2 melanoma): > 100 µM and > 450 µM and 75.7 µM
TGI (SNB-19 CNS): > 450 µM

C=C1c2c(C)nn(-c3ccccc3)c2N(C)C23C[C@@H]1C1(C)c4c(C)nn(-c5ccccc5)c4N(C)C(C)(C[C@H]12)C3 (stereo partly drawn)
GI50 (ACHN renal): 4.78 µM
TGI (ACHN renal): > 100 µM
GI50 (HT29 colon): 3.59 µM
TGI (HT29 colon): > 100 µM
GI50 (OVCAR-3 ovarian): 4.58 µM
TGI (OVCAR-3 ovarian): > 100 µM
GI50 (PC-3 prostate): 0.979 µM
TGI (PC-3 prostate): > 100 µM
GI50 (SF-268 CNS): 7.52 µM
TGI (SF-268 CNS): > 100 µM
GI50 (SK-MEL-2 melanoma): 6.78 µM
TGI (SK-MEL-2 melanoma): 22 µM
GI50 (SNB-19 CNS): 11 µM
TGI (SNB-19 CNS): 79.6 µM

COC(=O)c1ccc2n[se]nc2c1
TGI (ACHN renal): > 100 µM
TGI (HT29 colon): > 100 µM
TGI (KM12 colon): > 100 µM
TGI (MOLT-4 leukemia): > 100 µM
TGI (SF-268 CNS): > 100 µM
TGI (SK-MEL-2 melanoma): > 100 µM
TGI (SNB-19 CNS): > 100 µM
TGI (SR leukemia): > 100 µM

CC(C)CCC[C@@H](C)C1CCC2[C@@H]3CC=C4C[C@@H](OC(=O)CCC(=O)NCC[N+](C)(C)CCCS(=O)(=O)[O-])CC[C@]4(C)C3CC[C@@]21C (stereo partly drawn)
TGI (ACHN renal): 53.9 µM
TGI (HT29 colon): 80.3 µM
TGI (KM12 colon): 37.9 µM
TGI (MOLT-4 leukemia): 39.7 µM
TGI (OVCAR-3 ovarian): 34.5 µM
TGI (SF-268 CNS): 39.7 µM
TGI (SK-MEL-2 melanoma): 34.9 µM
TGI (SNB-19 CNS): 44.7 µM

COc1cc(C=C2C(=O)OC(C)(C)OC2=O)cc(OC)c1OC
TGI (ACHN renal): > 100 µM
TGI (HT29 colon): > 100 µM
TGI (KM12 colon): > 100 µM
TGI (MOLT-4 leukemia): > 100 µM
TGI (OVCAR-3 ovarian): > 100 µM
TGI (SF-268 CNS): > 100 µM
TGI (SK-MEL-2 melanoma): > 100 µM
TGI (SNB-19 CNS): > 100 µM
TGI (SR leukemia): > 100 µM

O=c1c2ccccc2oc2nccnc12
TGI (ACHN renal): > 100 µM
TGI (HT29 colon): > 100 µM
TGI (KM12 colon): > 100 µM
TGI (MOLT-4 leukemia): > 100 µM
TGI (OVCAR-3 ovarian): > 100 µM
TGI (SF-268 CNS): > 100 µM
TGI (SK-MEL-2 melanoma): > 100 µM
TGI (SNB-19 CNS): > 100 µM

Cc1ccc(NC(=O)C(=O)C2C(=O)C3=C(CC2(C)C)NC2C=CC=CC2S3)c(C)c1 (stereo not drawn)
TGI (ACHN renal): > 100 µM
TGI (HT29 colon): > 100 µM
TGI (KM12 colon): > 100 µM
TGI (MOLT-4 leukemia): > 100 µM
TGI (PC-3 prostate): > 100 µM
TGI (SF-268 CNS): > 100 µM
TGI (SK-MEL-2 melanoma): > 100 µM
TGI (SNB-19 CNS): > 100 µM

O=C(CC1Sc2ccccc2NC1=O)Nc1ccc([N+](=O)[O-])cc1[N+](=O)[O-] (stereo not drawn)
TGI (ACHN renal): 30.3 µM
TGI (HT29 colon): 33.1 µM
TGI (KM12 colon): 59.5 µM
TGI (MOLT-4 leukemia): 62.6 µM
TGI (OVCAR-3 ovarian): 31.5 µM
TGI (SF-268 CNS): 30.9 µM
TGI (SK-MEL-2 melanoma): 46.5 µM
TGI (SNB-19 CNS): 40.7 µM

N#CC1(Cc2ccccc2Cl)c2ccccc2C=CN1C(=O)c1ccccc1 (stereo not drawn)
TGI (ACHN renal): > 100 µM
TGI (HT29 colon): > 100 µM
TGI (KM12 colon): > 100 µM
TGI (MOLT-4 leukemia): > 100 µM
TGI (OVCAR-3 ovarian): > 100 µM
TGI (SF-268 CNS): > 100 µM
TGI (SK-MEL-2 melanoma): > 100 µM
TGI (SNB-19 CNS): > 100 µM
TGI (SR leukemia): > 100 µM

COC(=O)c1nc(N)[nH]c(=O)c1-c1ccc(Cl)cc1
TGI (ACHN renal): > 100 µM
TGI (HT29 colon): > 100 µM
TGI (KM12 colon): > 100 µM
TGI (MOLT-4 leukemia): > 100 µM
TGI (OVCAR-3 ovarian): > 100 µM
TGI (SF-268 CNS): > 100 µM
TGI (SK-MEL-2 melanoma): > 100 µM
TGI (SNB-19 CNS): > 100 µM
TGI (SR leukemia): > 86.6 µM

COc1ccc(/C=N\N2C(=O)Cc3ccccc32)cc1
TGI (ACHN renal): > 100 µM
TGI (HT29 colon): > 100 µM
TGI (KM12 colon): > 100 µM
TGI (MOLT-4 leukemia): > 100 µM
TGI (OVCAR-3 ovarian): > 100 µM
TGI (SF-268 CNS): > 100 µM
TGI (SK-MEL-2 melanoma): > 100 µM
TGI (SNB-19 CNS): > 100 µM

COc1cc2c3c(c1OC)C1(C=CC(=O)C=C1)CC3N(C(=O)OC(C)(C)C(Cl)(Cl)Cl)CC2 (stereo not drawn)
TGI (HT29 colon): 24.4 µM
TGI (KM12 colon): 23.2 µM
TGI (MOLT-4 leukemia): 17.9 µM
TGI (OVCAR-3 ovarian): 20.7 µM
TGI (SF-268 CNS): 31.8 µM
TGI (SK-MEL-2 melanoma): 25.2 µM
TGI (SNB-19 CNS): 32.2 µM
TGI (SR leukemia): 23.4 µM

Clc1cc(Cl)c2n[se]nc2c1
TGI (ACHN renal): > 100 µM
TGI (HT29 colon): > 100 µM
TGI (KM12 colon): > 100 µM
TGI (MOLT-4 leukemia): > 100 µM
TGI (SF-268 CNS): > 100 µM
TGI (SK-MEL-2 melanoma): > 100 µM
TGI (SNB-19 CNS): > 100 µM
TGI (SR leukemia): > 100 µM

COC1=C(C(=O)OC(C)(C)C)C23CCCCC2(C(C(=O)OC(C)(C)C)=C(OC)C3C(=O)OC(C)(C)C)C1C(=O)OC(C)(C)C (stereo not drawn)
TGI (ACHN renal): > 100 µM
TGI (HT29 colon): > 100 µM
TGI (KM12 colon): > 100 µM
TGI (MOLT-4 leukemia): 44.4 µM
TGI (OVCAR-3 ovarian): > 100 µM
TGI (SF-268 CNS): > 100 µM
TGI (SK-MEL-2 melanoma): > 100 µM
TGI (SNB-19 CNS): > 100 µM
TGI (SR leukemia): > 100 µM

COC(=O)CC[C@@H](NC(=O)C(C)NC(=O)COC1C(O)C(COC(=O)CCCCCCCCCCNC(=O)c2ccc([N+](=O)[O-])c3[nH]c4cc(Br)ccc4c(=O)c23)OC(OCc2ccccc2)C1NC(C)=O)C(N)=O (stereo partly drawn)
TGI (ACHN renal): > 100 µM
TGI (HT29 colon): > 100 µM
TGI (KM12 colon): > 100 µM
TGI (MOLT-4 leukemia): > 100 µM
TGI (OVCAR-3 ovarian): > 100 µM
TGI (SF-268 CNS): > 100 µM
TGI (SK-MEL-2 melanoma): > 100 µM
TGI (SNB-19 CNS): > 100 µM
TGI (SR leukemia): > 100 µM

O=C(Nc1ccc(Cl)cc1Cl)c1c/c(=N\O)c2ccc(O)cc2o1
TGI (ACHN renal): > 100 µM
TGI (HT29 colon): > 100 µM
TGI (KM12 colon): > 100 µM
TGI (MOLT-4 leukemia): > 100 µM
TGI (OVCAR-3 ovarian): > 100 µM
TGI (SF-268 CNS): > 100 µM
TGI (SNB-19 CNS): > 100 µM
TGI (SR leukemia): > 100 µM

CC1=NN(C(=O)CC(=O)Nc2ccccc2)C(=O)C1N=Nc1ccc(S(N)(=O)=O)cc1 (stereo not drawn)
TGI (ACHN renal): > 100 µM
TGI (HT29 colon): > 100 µM
TGI (KM12 colon): > 100 µM
TGI (MOLT-4 leukemia): > 100 µM
TGI (OVCAR-3 ovarian): > 100 µM
TGI (SF-268 CNS): > 100 µM
TGI (SK-MEL-2 melanoma): > 100 µM
TGI (SNB-19 CNS): > 100 µM
TGI (SR leukemia): > 100 µM

Cc1cccc2c1NC(c1c(C)[nH]c3ccccc13)C2 (stereo not drawn)
TGI (ACHN renal): > 100 µM
TGI (HT29 colon): > 100 µM
TGI (KM12 colon): > 100 µM
TGI (MOLT-4 leukemia): > 100 µM
TGI (OVCAR-3 ovarian): > 100 µM
TGI (SF-268 CNS): > 100 µM
TGI (SK-MEL-2 melanoma): > 100 µM
TGI (SNB-19 CNS): > 100 µM
TGI (SR leukemia): > 100 µM

CCC(C)CNC1=C(NC(C)=O)C(=O)c2ccccc2C1=O (stereo not drawn)
TGI (ACHN renal): > 100 µM
TGI (HT29 colon): > 100 µM
TGI (KM12 colon): > 100 µM
TGI (MOLT-4 leukemia): > 100 µM
TGI (OVCAR-3 ovarian): > 100 µM
TGI (SF-268 CNS): > 100 µM
TGI (SK-MEL-2 melanoma): > 100 µM
TGI (SNB-19 CNS): > 100 µM
TGI (SR leukemia): > 100 µM

COc1ccc2c(c1)C(CCN)C(=O)N2 (stereo not drawn)
TGI (ACHN renal): > 100 µM
TGI (HT29 colon): > 100 µM
TGI (KM12 colon): > 100 µM
TGI (MOLT-4 leukemia): > 100 µM
TGI (OVCAR-3 ovarian): > 100 µM
TGI (SF-268 CNS): > 100 µM
TGI (SK-MEL-2 melanoma): > 100 µM

Nc1ccc(Cl)cc1.Nc1ccc(Cl)cc1.Nc1ccc(Cl)cc1.O=C([O-])C(=O)[O-].O=C([O-])C(=O)[O-].[H+].[Ru+5]
GI50 (ACHN renal): 0.0696 µM
TGI (ACHN renal): > 25.4 µM
TGI (HT29 colon): > 100 µM
GI50 (KM12 colon): 0.124 µM
TGI (KM12 colon): 21.9 µM
GI50 (MOLT-4 leukemia): 1.2 µM
TGI (MOLT-4 leukemia): > 100 µM
GI50 (OVCAR-3 ovarian): 1.1 µM
TGI (OVCAR-3 ovarian): > 100 µM
GI50 (SF-268 CNS): > 100 µM
TGI (SF-268 CNS): > 100 µM
GI50 (SK-MEL-2 melanoma): 0.219 µM
GI50 (SNB-19 CNS): 31.4 µM
TGI (SNB-19 CNS): > 100 µM
GI50 (SR leukemia): 0.023 µM
TGI (SR leukemia): > 100 µM
